Assay results: publication PMC5059851, “Inhibition of Hedgehog-dependent tumors and cancer stem cells by a newly identified naturally occurring chemotype” (Cell Death & Disease, 2016)
Entries after “also recorded” stand apart in the source; their conditions may differ.

Experiments:
[1] = system: Gli1 mRNA; experiment: Gli1 mRNA (qRT-PCR) in DAOY cells; format: cell-based, human; details: after treatment
Procedure: After the indicated times, a trypan blue count was performed to determine the growth rate. […] Results were normalized to endogenous control (β-actin and HPRT).
Total RNA was isolated with Trizol (Invitrogen/Life Technologies, Carlsbad, CA, USA) and reverse transcribed with SensiFAST cDNA Synthesis Kit (Bioline Reagents Limited, London, UK). Quantitative real-time PCR (Q-PCR) analysis of Gli1, Gli2, Ptch1, Bmp2, Pfkfb3, CycD1, CycD2, Pcna, Oct4, Nanog, β-2 microglobulin, β-actin and HPRT mRNA expression was performed on each cDNA sample using the VIIA7 Real Time PCR System employing Assay-on-Demand Reagents (Life Technologies).

[2] = system: Hh pathway (Gli-responsive firefly luciferase reporter); experiment: Hh-dependent Gli-luciferase reporter assay in SAG-treated NIH3T3 Shh-Light II cells; format: cell-based; details: SAG (200 nM)-treated NIH3T3 Shh-Light II cells, 48 h, normalized to Renilla; N.A. = Not Active
Procedure: The inhibitory properties of the potential Smo antagonists 1–17 were investigated in a luciferase reporter assay that is widely used for characterizing Hh inhibitors. NIH3T3 Shh-Light II cells, stably incorporating a Gli-responsive firefly luciferase reporter (Gli-RE),[25] were treated with the synthetic Smo agonist SAG[24] alone or in combination with the selected small molecules to evaluate their dose–response ability to suppress Hh pathway. […] We excluded the possibility that inhibition activity in this assay was mediated by cytotoxicity because no decrease was shown in the luciferase assay control Renilla as observed instead for 13–17.
The luciferase assay was performed in Shh-Light II cells, stably incorporating a Gli-responsive luciferase reporter and the pRL-TK Renilla (normalization control), treated for 48 h with SAG (200 nM) and the studied compounds. Luciferase and Renilla activity were assayed with a dual-luciferase assay system according to the manufacturer's instruction (Biotium Inc., Hayward, CA, USA). Results are expressed as luciferase/Renilla ratios and represent the mean±S.D. of three experiments, each performed in triplicate.

[3] = system: Hh target genes and growth markers in GCPs; experiment: qRT-PCR of Hh and proliferation targets in SAG-treated GCPs; format: cell-based, mouse; details: SAG + compound at 5 and 10 μM, 48 h
Description: (§1) Hh signaling is a critical regulator of cerebellum development controlling the proliferation of granule cell progenitors (GCPs) under Purkinje cell-derived Shh stimuli. Withdrawal of Hh signal, occurring physiologically after the first post-natal week in mice,[54] causes cell growth arrest and induces their differentiation into mature granules.[55] Importantly, genetic and epigenetic alterations in the Hh pathway are responsible for the lack of GCPs proliferation arrest, leading to the tumorigenic conversion of these progenitors, considered as the cell of origin of MB.[56], [57] To investigate the biological effects of 12, we first tested its ability to suppress Hh-dependent growth in 4-day-old mouse cerebellar progenitors.
(§2) Figure 4 Compound 12 inhibition of Hh-dependent growth of cerebellum granule cell progenitors. (a and b) BrdU assay in cerebellar granule cell progenitors (GCPs). GCPs isolated from 4-day-old mice were treated with SAG alone or in combination with compound 12 at 5 and 10 μM concentrations for 48 h. (a) Inhibition of cell proliferation was measured as percentage of BrdU incorporation in comparison with SAG-treated sample. […] (c) qRT-PCR analysis show Hh and proliferation targets mRNA expression levels determined in GCPs culture derived from 4-day-old mouse cerebella treated with SAG alone or in combination with compound 12 at 5 and 10 μM concentrations for 48 h. […]

[4] = system: cerebellar granule cell progenitors (GCPs); experiment: BrdU proliferation assay in SAG-treated cerebellar granule cell progenitors; format: cell-based, mouse; details: SAG + compound at 5 and 10 μM, 48 h
Description: as §1
as §2, with “(a and b) BrdU assay in cerebellar granule cell progenitors (GCPs). GCPs isolated from 4-day-old mice were treated with SAG alone or in combination with compound 12 at 5 and 10 μM concentrations for 48 h.” left out
Cell proliferation was evaluated by BrdU detection (Roche, Welwyn Garden City, UK). […] At least 500 nuclei were counted in triplicate, and the number of BrdU-positive nuclei was recorded. […]

[5] = system: ASZ001 BCC cells; experiment: Trypan blue growth count of ASZ001 BCC cells; format: cell-based, mouse; details: compared with Cyclopamine, Vismodegib and LDE-225
Procedure: After the indicated times, a trypan blue count was performed to determine the growth rate.
Cell proliferation was evaluated by BrdU detection (Roche, Welwyn Garden City, UK). Briefly, after the BrdU pulse (24 h for GCPs) cells were fixed with 4% paraformaldehyde and permeabilized with 0.2% Triton X-100, and BrdU detection was performed according to the manufacturer's instructions. Nuclei were counterstained with Hoechst reagent. At least 500 nuclei were counted in triplicate, and the number of BrdU-positive nuclei was recorded. To determine the growth rate of viable cells, a trypan blue count was performed after a treatment period of 24–48–72 h with studied compound.

[6] = system: WNT/β-Catenin pathway; experiment: WNT/β-Catenin luciferase reporter assay (Top Flash-luciferase and β-Catenin) in MEFs WT; format: cell-based, mouse; details: increasing concentrations, 24 h
Procedure: Figure 2 Compound 12 inhibits Hh signaling without affecting AP1/Jun and WNT/β-Catenin pathways. (a) The graphs show the Hh target genes expression levels in Ptch1^−/− MEFs treated for 48 h with 12 or DMSO as control. mRNA levels were determined by quantitative real-time PCR (qRT-PCR) normalized to endogenous control (β2-microglobulin and HPRT). Pfkfb3 gene was used as negative control. *P<0.05 versus CTR. (b and c) AP1/Jun and WNT/β-Catenin pathways activity were assayed in MEFs WT transfected with MMP1-luciferase reporter and c-Jun (b) or Top Flash-luciferase reporter and β-Catenin (c), respectively, in the presence or absence of increasing concentrations of compound 12. Treatment time was 24 h, and normalization was against Renilla luciferase.

COc1ccc(C=CC(=O)c2cc(OC)c(OC)cc2OC)cc1OC [Compound 12, 3-(3,4-dimethoxy-phenyl)-1-(2,4,5-trimethoxy-phenyl)-2-propen-1-one]
Gli1 mRNA levels in DAOY cells [1]: significant decrease of Gli1 mRNA levels | IC50 [2]: 4.44 µM | mRNA levels of Hh target genes and cell growth markers (Gli1, Gli2, Ptch1, Pcna, cyclin D2) [3]: reduced mRNA levels | BrdU uptake / proliferation rate of GCPs [4]: reduced significantly | ASZ001 BCC cell growth in vitro [5]: significant efficacy to impair ASZ001 BCC cell growth | luciferase activity driven by Wnt/β-catenin signaling [6]: without affecting luciferase activity; also recorded: inactive
